From ChEMBL document CHEMBL6109101, “Synthesis and bioactivity of cyclic peptide GG-8-6 analogues as anti-hepatocellular carcinoma agents” (Eur J Med Chem, 2025)

Tests used:
[1] = Toxicity in nude mouse implanted with human MHCC97H cells assessed as body weight at 5 mg/kg, po administered daily for 3 weeks and measured immediately (reference value: 25.05 g); format: organism-based; conditions: in vivo, 504 h
[2] = Toxicity in nude mouse implanted with human MHCC97H cells assessed as kidney damage at 5 to 15 mg/kg, po administered daily for 3 weeks by H and E staining based analysis; format: organism-based; conditions: in vivo, 504 h, dose 5-15 mg/kg
[3] = Toxicity in nude mouse implanted with human MHCC97H cells assessed as liver damage at 5 to 15 mg/kg, po administered daily for 3 weeks by H and E staining based analysis; format: organism-based; conditions: in vivo, 504 h, dose 5-15 mg/kg
[4] = Toxicity in nude mouse implanted with human MHCC97H cells assessed as body weight at 15 mg/kg, po administered daily for 3 weeks and measured at day 22 (reference value: 26.38 g); format: organism-based; conditions: in vivo, 1032 h, time 43 day
HepG2 [5] = experiment: Cytotoxicity against human HepG2 cells assessed as inhibition of cell proliferation incubated for 48 hrs by MTT assay; format: functional, cell-based; conditions: HepG2, 48 h
[6] = Toxicity in nude mouse implanted with human MHCC97H cells assessed as heart damage at 5 to 15 mg/kg, po administered daily for 3 weeks by H and E staining based analysis; format: organism-based; conditions: in vivo, 504 h, dose 5-15 mg/kg
[7] = Toxicity in nude mouse implanted with human MHCC97H cells assessed as body weight at 10 mg/kg, po administered daily for 3 weeks and measured immediately (reference value: 25.05 g); format: organism-based; conditions: in vivo, 504 h
[8] = Toxicity in nude mouse implanted with human MHCC97H cells assessed as lung damage at 5 to 15 mg/kg, po administered daily for 3 weeks by H and E staining based analysis; format: organism-based; conditions: in vivo, 504 h, dose 5-15 mg/kg
[9] = Toxicity in nude mouse implanted with human MHCC97H cells assessed as body weight at 5 mg/kg, po administered daily for 3 weeks and measured at day 22 (reference value: 26.38 g); format: organism-based; conditions: in vivo, 1032 h, time 43 day
[10] = Toxicity in nude mouse implanted with human MHCC97H cells assessed as body weight at 10 mg/kg, po administered daily for 3 weeks and measured at day 22 (reference value: 26.38 g); format: organism-based; conditions: in vivo, 1032 h, time 43 day
[11] = Toxicity in nude mouse implanted with human MHCC97H cells assessed as body weight at 15 mg/kg, po administered daily for 3 weeks and measured immediately (reference value: 25.05 g); format: organism-based; conditions: in vivo, 504 h
[12] = Toxicity in nude mouse implanted with human MHCC97H cells assessed as spleen damage at 5 to 15 mg/kg, po administered daily for 3 weeks by H and E staining based analysis; format: organism-based; conditions: in vivo, 504 h, dose 5-15 mg/kg
HCCLM3 [13] = experiment: Cytotoxicity against human HCCLM3 cells assessed as inhibition of cell proliferation incubated for 48 hrs by MTT assay; format: functional, cell-based; conditions: HCCLM3, 48 h
MHCC97H [14] = experiment: Cytotoxicity against human MHCC97H cells assessed as inhibition of cell proliferation incubated for 48 hrs by MTT assay; format: functional, cell-based
Huh-7 [15] = experiment: Cytotoxicity against human Huh-7 cells assessed as inhibition of cell proliferation incubated for 48 hrs by MTT assay; format: functional, cell-based; conditions: Huh-7, 48 h
MHCC97H [16] = experiment: Antitumor activity against human MHCC97H cells xenografted in nude mouse assessed as tumor weight at 10 mg/kg, po administered daily for 3 weeks (reference value: 1.667g); format: functional
MHCC97H [17] = experiment: Antitumor activity against human MHCC97H cells xenografted in nude mouse assessed as tumor growth inhibition at 15 mg/kg, po administered daily for 3 weeks relative to control; format: functional; conditions: 504 h, read-out: TGI
MHCC97H [18] = experiment: Antitumor activity against human MHCC97H cells xenografted in nude mouse assessed as tumor weight at 5 mg/kg, po administered daily for 3 weeks (reference value: 1.667g); format: functional
MHCC97H [19] = experiment: Antitumor activity against human MHCC97H cells xenografted in nude mouse assessed as tumor growth inhibition at 5 mg/kg, po administered daily for 3 weeks relative to control; format: functional; conditions: 504 h, read-out: TGI
Huh-7 [20] = experiment: Antiproliferative activity against human Huh-7 cells assessed as reduction in intracellular ATP level at 10 uM incubated for 48 hrs by luminometer analysis relative to control; format: functional; design: scale not given: the % may be the effect or the level left
MHCC97H [21] = experiment: Antiproliferative activity against human MHCC97H cells assessed as reduction in intracellular ATP level at 10 uM incubated for 48 hrs by luminometer analysis relative to control; format: functional; design: scale not given: the % may be the effect or the level left
HCCLM3 [22] = experiment: Antiproliferative activity against human HCCLM3 cells assessed as reduction in intracellular ATP level at 10 uM incubated for 48 hrs by luminometer analysis relative to control; format: functional; design: scale not given: the % may be the effect or the level left
HepG2 [23] = experiment: Antiproliferative activity against human HepG2 cells assessed as reduction in intracellular ATP level at 10 uM incubated for 48 hrs by luminometer analysis relative to control; format: functional; design: scale not given: the % may be the effect or the level left
MHCC97H [24] = experiment: Antitumor activity against human MHCC97H cells xenografted in nude mouse assessed as tumor growth inhibition at 10 mg/kg, po administered daily for 3 weeks relative to control; format: functional; conditions: 504 h, read-out: TGI
MHCC97H [25] = experiment: Antiproliferative activity against human MHCC97H cells assessed as reduction in intracellular ATP level at 30 uM incubated for 48 hrs by luminometer analysis relative to control; format: functional; design: scale not given: the % may be the effect or the level left
MHCC97H [26] = experiment: Antitumor activity against human MHCC97H cells xenografted in nude mouse assessed as tumor weight at 15 mg/kg, po administered daily for 3 weeks (reference value: 1.667g); format: functional
[27] = Toxicity in nude mouse implanted with human MHCC97H cells assessed as lung damage at 5 to 10 mg/kg, po administered daily for 3 weeks by H and E staining based analysis; format: organism-based; conditions: in vivo, 504 h, dose 5-10 mg/kg
[28] = Toxicity in nude mouse implanted with human MHCC97H cells assessed as liver damage at 5 to 10 mg/kg, po administered daily for 3 weeks by H and E staining based analysis; format: organism-based; conditions: in vivo, 504 h, dose 5-10 mg/kg
[29] = Toxicity in nude mouse implanted with human MHCC97H cells assessed as kidney damage at 5 to 10 mg/kg, po administered daily for 3 weeks by H and E staining based analysis; format: organism-based; conditions: in vivo, 504 h, dose 5-10 mg/kg
[30] = Toxicity in nude mouse implanted with human MHCC97H cells assessed as heart damage at 5 to 10 mg/kg, po administered daily for 3 weeks by H and E staining based analysis; format: organism-based; conditions: in vivo, 504 h, dose 5-10 mg/kg
[31] = Toxicity in nude mouse implanted with human MHCC97H cells assessed as spleen damage at 5 to 10 mg/kg, po administered daily for 3 weeks by H and E staining based analysis; format: organism-based; conditions: in vivo, 504 h, dose 5-10 mg/kg

CC[C@H](C)[C@@H]1NC(=O)[C@@H]2CCCN2C(=O)[C@H](CC(C)C)NC(=O)[C@H](CO)NC(=O)[C@H](CC(C)C)NC(=O)[C@H](C(C)C)NC(=O)[C@H](CC(C)C)NC(=O)[C@H](CC(C)C)NC(=O)[C@H](CC(C)C)NC1=O [listing 1 of 2 here]
Activity [1]: 25.43 g | Activity [2]: Non-toxic | Activity [3]: Non-toxic | Activity [4]: 26.3 g | IC50 (HepG2 [5]): > 100 µM | Activity [6]: Non-toxic | Activity [7]: 25 g | Activity [8]: Non-toxic | Activity [9]: 26.38 g | Activity [10]: 26.3 g | Activity [11]: 24.9 g | Activity [12]: Non-toxic | IC50 (HCCLM3 [13]): 35.7 µM | IC50 (MHCC97H [14]): 33.3 µM | IC50 (Huh-7 [15]): > 100 µM

CC[C@H](C)[C@@H]1NC(=O)[C@@H]2CCCN2C(=O)[C@H](CC(C)C)NC(=O)[C@H](CO)NC(=O)[C@H](CC(C)C)NC(=O)[C@H](C(C)C)NC(=O)[C@H](CC(C)C)NC(=O)[C@H](CC(C)C)NC(=O)[C@H](CC(C)C)NC1=O [listing 2 of 2 here]
Activity (MHCC97H [16]): 0.732 g | inhibition in vivo at 15 mg/kg (MHCC97H [17]): 58.4% | Activity (MHCC97H [18]): 0.552 g | inhibition in vivo at 5 mg/kg (MHCC97H [19]): 66.9% | Activity (Huh-7 [20]): 47.3% | Activity (MHCC97H [21]): 47.3% | Activity (HCCLM3 [22]): 45.9% | Activity (HepG2 [23]): 47.1% | inhibition in vivo at 10 mg/kg (MHCC97H [24]): 56.1% | Activity (MHCC97H [25]): 61.9% | Activity (MHCC97H [26]): 0.695 g

CC[C@H](C)[C@@H]1NC(=O)[C@@H]2CCCN2C(=O)[C@H](CC(C)C)NC(=O)[C@H](COC(C)(C)C)NC(=O)[C@H](CC(C)C)NC(=O)[C@H](C(C)C)NC(=O)[C@H](CC(C)C)NC(=O)[C@H](CC(C)C)NC(=O)[C@H](CC(C)C)NC1=O
Activity [27]: Non-toxic | Activity [1]: 25.98 g | Activity [28]: Non-toxic | IC50 (HepG2 [5]): 3.29 µM | Activity [7]: 25.6 g | Activity [29]: Non-toxic | Activity [30]: Non-toxic | Activity [9]: 26.7 g | Activity [10]: 26.43 g | Activity [31]: Non-toxic | IC50 (HCCLM3 [13]): 4.6 µM | IC50 (MHCC97H [14]): 4.1 µM | IC50 (Huh-7 [15]): 3.29 µM
